The text below walks through data of patent US20130165459A1, “PHARMACEUTICAL COMPOSITION AND DOSAGE FORMS OF ELINOGREL AND METHODS OF USE THEREOF” (NORVARTIS PHARMA AG, priority 2010, published 2013).

This series can be described thus: contact angle measurement (wettability). Conditions: for Contact Angle: water, n = 2; for surface hydrophobicity: critical angle around 50°. It counts as physicochemical. The protocol:
The contact angle instrument was EasyDrop DSA15E (Krüss, Hamburg, Germany). The syringe was a NE44, with a needle diameter of 0.5 mm (Krüss, Hamburg, Germany). The standards (Krüss, Hamburg, Germany) were CP24 20007107, contact angle Gauge#4=30.00°±0.3, Gauge#5=60.00°±0.3, Gauge#6=120.00°±0.3.
The powder was pressed (approx 50 mg powder, 3 tons, 2 min) in tablets and analyzed by contact angle measuremnt. The angle between the solid and the liquid is measured after 0 and up to 60 seconds using water.
All determinations used the above method, and the limit for the standards measurements are well within the given limits.

Values joined by “and” are separate entries in the source; they are usually repeats but may differ in a detail not shown here. Equal values may be shown once.

Consider `CNc1cc2[nH]c(=O)n(-c3ccc(NC(=O)[N-]S(=O)(=O)c4ccc(Cl)s4)cc3)c(=O)c2cc1F.[K+]` [A], for which the surface hydrophobicity result is reported as “hydrophobic”. The “Contact Angle” value (0 sec) was determined as 78.8 °. Further, the “Contact Angle” value (30 sec) is 53.3 °. For the same compound, the “Contact Angle” value (60 sec) stood at 51.0 °.

Take `CNc1cc2[nH]c(=O)n(-c3ccc(NC(=O)NS(=O)(=O)c4ccc(Cl)s4)cc3)c(=O)c2cc1F` [Free acid, [4-(6-fluoro-7-methylamino-2,4-dioxo-1,4-dihydro-2H-quinazolin-3-yl)-phenyl]-5-chloro-thiophen-2-yl-sulfonylurea]: the “Contact Angle” value reads like this: (0 sec) 65.9 °; (30 sec) 60.8 °; (60 sec) 60.1 °.

Regarding `CNc1cc2[nH]c(=O)n(-c3ccc(NC(=O)[N-]S(=O)(=O)c4ccc(Cl)s4)cc3)c(=O)c2cc1F.[K+]` [B], the surface hydrophobicity entry is on record as “hydrophobic”. For the setting “0 sec”, the “Contact Angle” value is 72.4 ° and 79.7 °. The “Contact Angle” value (30 sec) was 54.6 ° and 55.2 °. The “Contact Angle” value (60 sec) was 53.5 ° and 52.8 °.
